This is an account of results in patent US9817000B2, “Method for identifying compounds that modulate a T2R taste receptor” (The Regents of the University of California, priority 1999, dated 2017).

Where two headings read alike, the source gives them in different places.

The subject of assay [1] is Cyx taster and non-taster mouse strains. Conditions: cited from earlier work; for taste behaviour: non-taster strains.
Another assay has as its target T1, mT2R5 (C57BL/6-allele) (Mus musculus, UniProt Q9JKT4, G155D/I85V/L294R/T101A/T44I).
T1 construct: expressed in transfected cells; host or cells: modified HEK-293 cells (PEAKrapid) expressing Gα15
T1 sequence (Q9JKT4 1-300 T44I/I85V/T101A/G155D/L294R): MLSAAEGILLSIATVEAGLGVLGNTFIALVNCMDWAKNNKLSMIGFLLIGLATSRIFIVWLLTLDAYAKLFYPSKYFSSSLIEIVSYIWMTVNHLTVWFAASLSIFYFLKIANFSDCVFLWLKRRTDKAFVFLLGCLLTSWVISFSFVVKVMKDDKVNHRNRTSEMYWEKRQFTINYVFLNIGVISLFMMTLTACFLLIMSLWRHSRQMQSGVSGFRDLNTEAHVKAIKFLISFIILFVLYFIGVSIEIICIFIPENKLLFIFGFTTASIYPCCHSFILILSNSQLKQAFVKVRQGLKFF
The assay can be described thus: FURA-2 [Ca2+]i imaging in HEK-293 cells expressing Gα15 and rho-mT2R5 from non-taster strain (C57BL/6 allele). The assay is classed as cell-based. Here is the method: A bridge overlap PCR extension technique was used to generate rho-T2R chimeras, which contain the first 39 amino acids of bovine rhodopsin in frame with human and rodent T2R coding sequences (Mehta and Singh, Biotechniques 26:1082-1086 (1999). All receptors were cloned into a pEAK10 mammalian expression vector (Edge Biosystems, MD). Modified HEK-293 cells (PEAK^rapid cells; Edge BioSystems, MD) were grown and maintained at 37° C. in UltraCulture medium (Bio Whittaker) supplemented with 5% fetal bovine serum, 100 μg/ml Gentamycin sulphate (Fisher), 1 μg/ml Amphotericin B and 2 mM GlutaMax I (Lifetechnologies). […]
Transfected cells were washed once in Hank's balanced salt solution with 1 mM sodium pyruvate and 10 mM HEPES, pH 7.4 (assay buffer), and loaded with 2 μM FURA-2 AM (Molecular Probes) for 1 h at room temperature. […] [Ca^2+]i changes were monitored using a Nikon Diaphot 200 microscope equipped with a 10×/0.5 fluor objective with the TILL imaging system (T.I.L.L Photonics GmbH). Acquisition and analysis of the fluorescence images used TILL-Vision software. Generally, [Ca^2+]i was measured for 80-120 s by sequentially illuminating cells for 200 ms at 340 nm and 380 nm and monitoring the fluorescence emission at 510 nm using a cooled CCD camera. The F340/F380 ratio was analyzed to measure [Ca^2+]i. […]

The next assay has as its target T2, mT2R8 (Mus musculus, UniProt Q9JKT3).
T2 construct: expressed in transfected cells; host or cells: HEK-293 cells (PEAKrapid) expressing Gα15
T2 sequence (Q9JKT3 1-297): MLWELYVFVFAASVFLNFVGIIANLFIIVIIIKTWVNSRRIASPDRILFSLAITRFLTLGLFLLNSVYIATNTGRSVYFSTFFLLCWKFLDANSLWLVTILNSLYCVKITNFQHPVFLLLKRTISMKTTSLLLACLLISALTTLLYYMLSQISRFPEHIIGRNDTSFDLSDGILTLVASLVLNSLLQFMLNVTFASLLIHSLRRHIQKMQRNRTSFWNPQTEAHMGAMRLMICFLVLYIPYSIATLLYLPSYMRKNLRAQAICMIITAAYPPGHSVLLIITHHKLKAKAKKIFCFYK
The assay can be described thus: FURA-2 [Ca2+]i imaging in HEK-293 cells expressing Gα15 and rho-mT2R8. Conditions: for [Ca2+]i response (FURA-2): 1.5 mM denatonium. The assay is classed as cell-based. An excerpt:
In this system, receptor activation leads to increases in intracellular calcium [Ca2+]i, which can be monitored at the single cell level using the FURA-2 calcium-indicator dye (Tsien et al., Cell Calcium 6:145-157 (1985)). To test and optimize Gα15 coupling, two different GPCRs, a Gαi-coupled μ-opioid receptor (Reisine, Neuropharm. 34:463-472 (1995)) and a Gαq-coupled mGluR1 receptor (Masu et al., Nature 349:760-765 (1991)), were used. Transfection of these receptors into HEK-293 cell produced robust, agonist-selective, and Gα15-dependent Ca^2+ responses (FIG. 1).
A number of studies have shown that many GPCRs, in particular sensory receptors, require specific “chaperones” for maturation and targeting through the secretory pathway (Baker et al., Embo J 13:4886-4895 (1994); Dwyer et al., Cell 93:455-466 (1998)). Recently, Krautwurst et al. (Cell 95:917-926 (1998)) generated chimeric receptors consisting of the first 20 amino acids of rhodopsin and various rodent olfactory receptors. These were targeted to the plasma membrane and functioned as odorant receptors in HEK-293 cells. To determine whether rhodopsin sequences can also help target T2Rs to the plasma membra, rhodopsin-T2R chimeras (rho-T2Rs) were constructed. […] Similar results were obtained with 11 human and 16 rodent T2Rs (see below). To further enhance the level of T2R expression, rho-T2Rs were placed under the control of a strong EF-1α promoter, and introduced as episomal plasmids into modified HEK-293 cells expressing Gα15 (pEAKrapid cells).
A bridge overlap PCR extension technique was used to generate rho-T2R chimeras, which contain the first 39 amino acids of bovine rhodopsin in frame with human and rodent T2R coding sequences (Mehta and Singh, Biotechniques 26:1082-1086 (1999). All receptors were cloned into a pEAK10 mammalian expression vector (Edge Biosystems, MD). Modified HEK-293 cells (PEAK^rapid cells; Edge BioSystems, MD) were grown and maintained at 37° C. in UltraCulture medium (Bio Whittaker) supplemented with 5% fetal bovine serum, 100 μg/ml Gentamycin sulphate (Fisher), 1 μg/ml Amphotericin B and 2 mM GlutaMax I (Lifetechnologies). For transfection, cells were seeded onto matrigel coated 24-well culture plates or 35 mm recording chambers. After 24 h at 37° C., cells were washed in OptiMEM medium (Lifetechnologies) and transfected using LipofectAMINE reagent (Lifetechnologies). Transfection efficiencies were estimated by co-transfection of a GFP reporter plasmid, and were typically >70%. Immunofluoresence staining, and activity assays were performed 36-48 h after transfection.
Transfected cells were washed once in Hank's balanced salt solution with 1 mM sodium pyruvate and 10 mM HEPES, pH 7.4 (assay buffer), and loaded with 2 μM FURA-2 AM (Molecular Probes) for 1 h at room temperature. The loading solution was removed and cells were incubated in 200 μl of assay buffer for 1 h to allow the cleavage of the AM ester. […] [Ca^2+]i changes were monitored using a Nikon Diaphot 200 microscope equipped with a 10×/0.5 fluor objective with the TILL imaging system (T.I.L.L Photonics GmbH). Acquisition and analysis of the fluorescence images used TILL-Vision software. Generally, [Ca^2+]i was measured for 80-120 s by sequentially illuminating cells for 200 ms at 340 nm and 380 nm and monitoring the fluorescence emission at 510 nm using a cooled CCD camera. The F340/F380 ratio was analyzed to measure [Ca^2+]i.
Kinetics of activation and deactivation were measured using a bath perfusion system. […]

The term EC50 denotes the concentration needed to bring the measured effect to its halfway point. Read a high EC50 as a need for much substance. As to `C[C@@H]1C[C@@H]([C@H](O)CC2CC(=O)NC(=O)C2)C(=O)[C@@H](C)C1` [cycloheximide], the avoidance threshold in assay [1] (Cyx taster strains) is on record as 0.25. Besides, the values for the taste behaviour result in assay [1] (at 8 μM) and in assay [1] (at 1) were “strongly avoid” and “non-tasters”, respectively. In addition, in assay [1] (non-tasters vs taster strains), the decrease in sensitivity was about 8 fold. The sensitivity threshold in assay [1] (rodents) is about 0.25 µM. The EC50 at mT2R5 (C57BL/6-allele) was about 2300 nM. The “dose response compared with receptor from taster strains” value at mT2R5 (C57BL/6-allele) was “shift in cycloheximide sensitivity”.

As for `CC[N+](CC)(CC(=O)Nc1c(C)cccc1C)Cc1ccccc1` [denatonium], the receptor activation result at mT2R8 was “activated”. Also, the figures for the “[Ca2+]i response (FURA-2)” value on mT2R8 (absence of Gα15) and at mT2R8 (with Gα15) were “No increase in [Ca2+]i” and “robust Gα15 dependent responses”, respectively. For the same compound, the “increase in [Ca2+]i on tastant stimulation” value on mT2R8 (concentrations as in FIG. 4 (denatonium 5 mM)) is “increase in [Ca2+]i could be induced”.
